In ChEMBL document CHEMBL4038335, “Neuroactive Steroids. 2. 3α-Hydroxy-3β-methyl-21-(4-cyano-1H-pyrazol-1'-yl)-19-nor-5β-pregnan-20-one (SAGE-217): A Clinical Next Generation Neuroactive Steroid Positive Allosteric Modulator of the (γ-Aminobutyric Acid)A Receptor” (J Med Chem, 2017):
Converted amounts (≈) assume the structure as drawn.

Columns and labels:
[1] = Oral bioavailability in CD1 mouse at 20 mg/kg measured up to 8 hrs post dose by LC/MS-MS analysis; format: ADME, organism-based; details: in vivo
[2] = Clearance in Sprague-Dawley rat at 5 mg/kg, iv or 20 mg/kg, po measured up to 8 hrs post dose by LC/MS-MS analysis; format: ADME, organism-based; details: in vivo
[3] = Clearance in mouse hepatic microsomes at 10 uM preincubated for 5 mins followed by NADPH addition measured over 60 mins by HPLC-MS/MS analysis; format: ADME, Microsome; details: liver microsomes
[4] = target: GABA-A receptor; alpha-1/beta-2/gamma-2 (Homo sapiens) (UniProt P14867+P47870+P18507); assay: (§1) Positive allosteric modulation of GABAA receptor alpha1beta2gamma2 (unknown origin) expressed in mouse LTK cells assessed as potentiation of GABA-mediated increase in channel current under holding potential at -80 mV at 0.01 to 10 uM preincubated for 30 secs followed by GABA stimulation for 2 secs by automated patch clamp assay relative to GABA; format: cell-based
[5] = Clearance in rat hepatic microsomes at 10 uM preincubated for 5 mins followed by NADPH addition measured over 60 mins by HPLC-MS/MS analysis; format: ADME, Microsome; details: liver microsomes
[6] = Clearance in human hepatic microsomes at 10 uM preincubated for 5 mins followed by NADPH addition measured over 60 mins by HPLC-MS/MS analysis; format: ADME, Microsome; details: liver microsomes
[7] = target: Gamma-aminobutyric acid receptor subunit alpha-4/beta3/delta (Homo sapiens, UniProt O14764+P28472+P48169); assay: as §1, with “alpha4beta3delta” for “alpha1beta2gamma2”, “CHO” for “mouse LTK”, “mV” for “mV at 0.01 to 10 uM”, “manual” for “automated”, “assay” for “assay relative to GABA”; format: cell-based
Sequence of Gamma-aminobutyric acid receptor subunit alpha-4/beta3/delta (P28472 whole entry): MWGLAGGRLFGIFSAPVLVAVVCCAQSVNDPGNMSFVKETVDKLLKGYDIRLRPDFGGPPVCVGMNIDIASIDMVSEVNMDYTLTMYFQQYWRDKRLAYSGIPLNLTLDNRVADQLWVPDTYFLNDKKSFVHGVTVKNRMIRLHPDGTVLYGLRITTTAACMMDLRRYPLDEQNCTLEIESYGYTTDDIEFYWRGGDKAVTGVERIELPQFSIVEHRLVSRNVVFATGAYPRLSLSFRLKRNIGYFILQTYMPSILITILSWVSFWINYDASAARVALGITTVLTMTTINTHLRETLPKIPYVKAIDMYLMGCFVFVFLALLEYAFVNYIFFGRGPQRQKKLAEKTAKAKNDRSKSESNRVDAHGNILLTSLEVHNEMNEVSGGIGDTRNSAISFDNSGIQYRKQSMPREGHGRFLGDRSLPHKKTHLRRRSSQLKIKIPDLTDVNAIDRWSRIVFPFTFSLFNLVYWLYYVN
Sequence of Gamma-aminobutyric acid receptor subunit alpha-4/beta3/delta (P48169 whole entry): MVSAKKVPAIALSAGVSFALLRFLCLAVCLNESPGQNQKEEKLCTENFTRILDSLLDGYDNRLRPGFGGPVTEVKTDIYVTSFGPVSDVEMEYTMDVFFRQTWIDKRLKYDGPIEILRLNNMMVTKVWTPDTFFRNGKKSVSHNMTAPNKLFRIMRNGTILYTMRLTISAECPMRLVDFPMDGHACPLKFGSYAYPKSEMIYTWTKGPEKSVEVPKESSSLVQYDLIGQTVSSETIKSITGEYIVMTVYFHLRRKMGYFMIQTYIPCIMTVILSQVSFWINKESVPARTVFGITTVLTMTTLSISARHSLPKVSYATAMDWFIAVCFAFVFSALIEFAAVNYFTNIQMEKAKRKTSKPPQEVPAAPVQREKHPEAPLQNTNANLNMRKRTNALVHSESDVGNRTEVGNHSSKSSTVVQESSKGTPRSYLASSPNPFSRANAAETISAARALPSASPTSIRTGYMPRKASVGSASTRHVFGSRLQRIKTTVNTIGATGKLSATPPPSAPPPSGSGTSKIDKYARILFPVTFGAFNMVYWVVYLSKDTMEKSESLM
Sequence of Gamma-aminobutyric acid receptor subunit alpha-4/beta3/delta (O14764 whole entry): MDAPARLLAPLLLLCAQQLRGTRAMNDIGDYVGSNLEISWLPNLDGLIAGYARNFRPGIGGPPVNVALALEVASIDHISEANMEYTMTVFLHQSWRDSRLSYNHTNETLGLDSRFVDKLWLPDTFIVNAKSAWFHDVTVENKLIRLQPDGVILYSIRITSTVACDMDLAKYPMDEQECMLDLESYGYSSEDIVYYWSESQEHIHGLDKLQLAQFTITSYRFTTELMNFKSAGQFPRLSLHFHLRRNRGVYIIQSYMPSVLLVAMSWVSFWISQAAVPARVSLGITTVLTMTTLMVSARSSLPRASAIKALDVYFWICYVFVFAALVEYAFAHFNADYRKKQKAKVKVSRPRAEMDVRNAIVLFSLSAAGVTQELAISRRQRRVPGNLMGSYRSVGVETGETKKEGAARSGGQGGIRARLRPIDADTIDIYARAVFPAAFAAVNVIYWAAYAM

[8] = Displacement of [35S]TBPS from GABA-A receptor in Sprague-Dawley rat cerebral cortex cell membranes after 90 mins in presence of GABA by liquid scintillation counting
[9] = Clearance in CD1 mouse at 5 mg/kg, iv or 20 mg/kg, po measured up to 8 hrs post dose by LC/MS-MS analysis; format: ADME, organism-based; details: in vivo
[10] = Ratio of drug level in CD1 mouse brain to plasma at 5 mg/kg, iv measured at 30 mins post dose by LC/MS-MS analysis; format: ADME, organism-based; details: read-out: BPR
[11] = Oral bioavailability in Sprague-Dawley rat at 20 mg/kg measured up to 8 hrs post dose by LC/MS-MS analysis; format: ADME, organism-based; details: in vivo
[12] = Thermodynamic aqueous solubility of compound at 10 uM sonicated for 1 min followed by incubation for 1 hr by HPLC-MS/MS; format: physicochemical; details: buffer; read-out: Therm_solubility
[13] = Ratio of drug level in Sprague-Dawley rat brain to plasma at 5 mg/kg, iv measured at 30 mins post dose by LC/MS-MS analysis; format: ADME, organism-based; details: read-out: BPR
[14] = target: GABA-A receptor alpha-4/beta-3/delta (Homo sapiens, UniProt P28472+P48169+); assay: as §1, with “alpha4beta3delta” for “alpha1beta2gamma2”, “CHO” for “mouse LTK”, “manual” for “automated”; format: cell-based; details: 2 s
Sequence of GABA-A receptor alpha-4/beta-3/delta (P28472 whole entry): as the sequence (P28472 whole entry) above
Sequence of GABA-A receptor alpha-4/beta-3/delta (P48169 whole entry): as the sequence (P48169 whole entry) above
Sequence of GABA-A receptor alpha-4/beta-3/delta (Q06278 whole entry, further chain): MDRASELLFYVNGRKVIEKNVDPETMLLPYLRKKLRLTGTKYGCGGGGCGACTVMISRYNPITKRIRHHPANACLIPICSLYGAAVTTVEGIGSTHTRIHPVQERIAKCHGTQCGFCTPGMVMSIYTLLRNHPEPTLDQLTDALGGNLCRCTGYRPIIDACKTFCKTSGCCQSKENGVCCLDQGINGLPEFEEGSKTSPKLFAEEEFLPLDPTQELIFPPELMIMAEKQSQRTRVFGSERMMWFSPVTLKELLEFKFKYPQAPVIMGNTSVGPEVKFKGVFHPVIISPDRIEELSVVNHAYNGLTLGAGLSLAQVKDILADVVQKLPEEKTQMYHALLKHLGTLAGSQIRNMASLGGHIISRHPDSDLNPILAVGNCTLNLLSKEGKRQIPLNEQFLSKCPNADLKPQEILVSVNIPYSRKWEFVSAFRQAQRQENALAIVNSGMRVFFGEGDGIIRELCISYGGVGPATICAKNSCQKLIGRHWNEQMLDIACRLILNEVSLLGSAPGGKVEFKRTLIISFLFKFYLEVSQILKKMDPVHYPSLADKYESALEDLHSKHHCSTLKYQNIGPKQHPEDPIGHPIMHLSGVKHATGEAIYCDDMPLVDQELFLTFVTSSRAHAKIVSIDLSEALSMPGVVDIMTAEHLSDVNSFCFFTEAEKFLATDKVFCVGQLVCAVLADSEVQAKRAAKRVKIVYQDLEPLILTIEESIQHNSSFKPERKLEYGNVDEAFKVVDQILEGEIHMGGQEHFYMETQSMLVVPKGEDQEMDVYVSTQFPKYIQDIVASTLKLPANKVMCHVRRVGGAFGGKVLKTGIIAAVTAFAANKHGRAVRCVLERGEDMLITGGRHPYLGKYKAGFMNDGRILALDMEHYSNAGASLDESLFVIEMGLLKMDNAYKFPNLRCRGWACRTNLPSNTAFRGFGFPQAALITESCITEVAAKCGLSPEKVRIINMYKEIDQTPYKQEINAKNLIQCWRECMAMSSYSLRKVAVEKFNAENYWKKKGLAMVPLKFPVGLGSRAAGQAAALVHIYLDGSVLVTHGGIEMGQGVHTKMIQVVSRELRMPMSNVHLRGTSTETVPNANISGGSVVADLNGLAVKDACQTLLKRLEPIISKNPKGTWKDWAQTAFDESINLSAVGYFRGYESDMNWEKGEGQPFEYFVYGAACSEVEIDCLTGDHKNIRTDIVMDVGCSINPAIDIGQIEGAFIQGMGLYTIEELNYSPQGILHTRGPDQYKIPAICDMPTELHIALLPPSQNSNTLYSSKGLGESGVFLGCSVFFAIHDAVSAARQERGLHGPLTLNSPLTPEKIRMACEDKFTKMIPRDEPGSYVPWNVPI

[15] = Lipophilicity, logD of compound at 20 uM at pH 7.4 by HPLC/MS-MS analysis; format: physicochemical; details: buffer
[16] = target: T1, GABA-A receptor; alpha-1/beta-2/gamma-2 (Homo sapiens, UniProt P14867+P18507+P47870); assay: as §1, with “mV” for “mV at 0.01 to 10 uM”, “assay” for “assay relative to GABA”; format: cell-based
T1 sequence (P14867 whole entry): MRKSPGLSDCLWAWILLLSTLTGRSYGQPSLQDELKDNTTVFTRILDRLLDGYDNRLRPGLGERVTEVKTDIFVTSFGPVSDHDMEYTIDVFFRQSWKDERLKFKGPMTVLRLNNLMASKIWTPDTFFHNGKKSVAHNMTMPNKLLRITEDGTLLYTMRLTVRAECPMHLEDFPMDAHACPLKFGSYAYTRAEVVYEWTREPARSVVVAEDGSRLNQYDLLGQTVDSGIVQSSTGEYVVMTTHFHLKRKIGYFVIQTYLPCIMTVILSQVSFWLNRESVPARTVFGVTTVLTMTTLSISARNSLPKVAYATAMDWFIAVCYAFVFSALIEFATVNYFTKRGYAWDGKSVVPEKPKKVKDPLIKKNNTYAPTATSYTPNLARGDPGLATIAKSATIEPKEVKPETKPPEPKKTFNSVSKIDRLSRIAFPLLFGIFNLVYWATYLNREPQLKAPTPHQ
T1 sequence (P47870 whole entry): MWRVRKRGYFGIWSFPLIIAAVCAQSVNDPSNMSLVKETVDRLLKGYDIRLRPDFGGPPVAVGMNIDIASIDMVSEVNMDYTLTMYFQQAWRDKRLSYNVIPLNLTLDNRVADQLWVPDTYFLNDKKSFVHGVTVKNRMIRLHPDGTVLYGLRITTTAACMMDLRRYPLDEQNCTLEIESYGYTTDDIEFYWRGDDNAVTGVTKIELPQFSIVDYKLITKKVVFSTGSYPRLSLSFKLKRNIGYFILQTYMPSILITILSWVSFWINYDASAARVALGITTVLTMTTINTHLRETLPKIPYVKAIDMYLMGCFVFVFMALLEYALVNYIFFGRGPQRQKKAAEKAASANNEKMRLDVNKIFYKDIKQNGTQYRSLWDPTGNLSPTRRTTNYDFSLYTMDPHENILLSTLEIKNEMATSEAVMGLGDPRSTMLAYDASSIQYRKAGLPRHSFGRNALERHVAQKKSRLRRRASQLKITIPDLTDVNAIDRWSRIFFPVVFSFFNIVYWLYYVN
T1 sequence (P18507 whole entry): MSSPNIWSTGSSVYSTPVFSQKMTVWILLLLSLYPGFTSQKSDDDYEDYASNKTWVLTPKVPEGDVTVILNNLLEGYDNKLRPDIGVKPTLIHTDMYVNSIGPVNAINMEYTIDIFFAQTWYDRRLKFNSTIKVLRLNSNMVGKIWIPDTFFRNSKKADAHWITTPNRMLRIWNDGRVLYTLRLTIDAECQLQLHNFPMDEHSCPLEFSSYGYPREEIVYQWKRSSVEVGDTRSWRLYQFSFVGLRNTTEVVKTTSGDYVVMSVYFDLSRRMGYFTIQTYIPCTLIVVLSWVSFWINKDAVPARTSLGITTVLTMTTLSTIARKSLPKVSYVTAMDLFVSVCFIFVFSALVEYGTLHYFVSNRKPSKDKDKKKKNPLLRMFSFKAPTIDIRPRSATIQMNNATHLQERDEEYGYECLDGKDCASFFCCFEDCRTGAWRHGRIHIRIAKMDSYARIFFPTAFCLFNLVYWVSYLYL

`C[C@@]1(O)CC[C@H]2[C@H](CC[C@@H]3[C@@H]2CC[C@]2(C)[C@@H](C(=O)Cn4ccc(C#N)n4)CC[C@@H]32)C1` showed a bioavailability [1] of 26%, a clearance [2] of 25 mL/min/kg and a CLhep predicted at 10 µM [3] of 83.3 mL/min/kg. For the same compound, the Emax [4] was 725%, the CLhep predicted at 10 µM [5] was 41.7 mL/min/kg and the CLhep predicted at 10 µM [6] was 5 mL/min/kg. It also gave an EC50 [7] of 110 nM, an IC50 [8] of 13 nM and a clearance [9] of 43.3 mL/min/kg. For the same compound, the Kp at 0.5 h [10] was 1.4, the bioavailability [11] was 56% and the solubility thermodynamic at 1 h, 10 µM [12] was 1.9 µM (≈ 0.778 µg/mL). It also gave a Kp at 0.5 h [13] of 1.9, an Emax [14] of 330% and a logD at 20 µM [15] of 4.6. For the same compound, the EC50 [16] was 225 nM.
